In ChEMBL document CHEMBL1150684, “New cytotoxic lupane triterpenoids from the twigs of Coussarea paniculata” (J Nat Prod, 2003) one finds IC50 data, which are given here for eleven molecules.

The term IC50 denotes the concentration needed to halve the response being measured. A higher IC50 goes with weaker potency in that assay.

Values after ≈ are worked out from the molar mass of the structure shown.

For this test, the system named is A2780. Put plainly: Cytotoxicity against human A2780 cells. The class given is functional, cell-based.
Take `C=C(C)[C@@H]1CC[C@]2(C(=O)O)CC[C@]3(C)[C@H](CC[C@@H]4[C@@]5(C)CC[C@@H](O)C(C)(C)[C@@H]5CC[C@]43C)[C@@H]12` [EPIBETULINIC ACID]: the IC50 is at least 20 µg/mL.

In the case of `C=C(C)[C@@H]1CC[C@]2(C(=O)O)CC[C@]3(C)[C@H](CC[C@@H]4[C@@]5(C)CCCC(C)(C)[C@@H]5CC[C@]43C)[C@@H]12`, the IC50 amounted to 17.4 µg/mL (≈ 39.5 µM).

On to `C=C(C)[C@@H]1CC[C@]2(C)CC[C@]3(C)[C@H](CC[C@@H]4[C@@]5(C)CC[C@H](O)C(C)(C)[C@@H]5CC[C@]43C)[C@@H]12` [LUPEOL], for which the IC50 was at least 20 µg/mL.

With `C[C@H]1[C@H](C)CC[C@]2(C(=O)O)CC[C@]3(C)C(=CC[C@@H]4[C@@]5(C)CC[C@H](O)C(C)(C)[C@@H]5CC[C@]43C)[C@H]12` [URSOLIC ACID], the IC50 was at least 20 µg/mL.

Turning to `C=C(C)[C@@H]1CC[C@]2(C=O)CC[C@]3(C)[C@H](CC[C@@H]4[C@@]5(C)CC[C@@H](O)C(C)(C)[C@@H]5CC[C@]43C)[C@@H]12`, the IC50 is at least 20 µg/mL.

Molecule `C=C(C)[C@@H]1CC[C@]2(C)CC[C@]3(C)[C@H](CC[C@@H]4[C@@]5(C)CC[C@H](OC(C)=O)C(C)(C)[C@@H]5CC[C@]43C)[C@@H]12` [LUPENYL ACETATE] showed an IC50 of 16 µg/mL.

`C=C(C)[C@@H]1CC[C@]2(C)CC[C@]3(C)[C@H](CC[C@@H]4[C@@]5(COC(C)=O)CC[C@H](OC(C)=O)C(C)(C)[C@@H]5CC[C@]43C)[C@@H]12` came in with an IC50 of 9.6 µg/mL (≈ 18.2 µM).

As for `C=C(C)[C@@H]1CC[C@]2(COC(C)=O)CC[C@]3(C)[C@H](CC[C@@H]4[C@@]5(C)CC[C@H](OC(C)=O)C(C)(C)[C@@H]5CC[C@]43C)[C@@H]12` [BETULIN DIACETATE], the IC50 is at least 20 µg/mL.

In turn, `C=C(C)[C@@H]1CC[C@]2(C)CC[C@]3(C)[C@H](C[C@@H](O)[C@@H]4[C@]56CC[C@H](OC5=O)C(C)(C)[C@@H]6CC[C@]43C)[C@@H]12` gave an IC50 of 18 µg/mL (≈ 39.6 µM).

On to `CC1(C)CC[C@]2(C(=O)O)CC[C@]3(C)C(=CC[C@@H]4[C@@]5(C)CC[C@H](O)C(C)(C)[C@@H]5CC[C@]43C)[C@@H]2C1` [OLEANOLIC_ACID], for which the IC50 is at least 20 µg/mL.

`C=C(C)[C@@H]1CC[C@]2(C(=O)O)CC[C@]3(C)[C@H](CC[C@@H]4[C@@]5(C)CC[C@H](O)C(C)(C)[C@@H]5CC[C@]43C)[C@@H]12` [BETULINIC ACID]: the IC50 is at least 20 µg/mL.
